Test results: PMC5767327, “Tonically Active α2 Subunit-Containing Glycine Receptors Regulate the Excitability of Striatal Medium Spiny Neurons” (Frontiers in Molecular Neuroscience, 2018)

Molecular target: T1, GlyR α2 (native α2 subunit-containing glycine receptors of striatal medium spiny neurons) (Mus musculus, UniProt Q7TNC8)
T1 construct: gene Glra2; native full-length receptor in adult dorsal striatal slices; α2 homomer or α2β heteromer (Glrb) not resolved by authors; no glycine current in Glra2 knockout MSNs
Assay: whole-cell patch clamp, evoked chloride current, fast perfusion, Hill fit
Format: cell-based
Settings: read-out: STP MSNs (n = 6); agonist; STP MSNs (Drd2-EGFP) in acute striatal slices, native receptor; -80 mV, 32°C; with gabazine, CNQX, DHβE, L-689,560, TTX; authors call it a higher boundary (diffusion in slice)
Source text: whole-cell patch clamp, evoked chloride current, fast perfusion, Hill fit on GlyR α2 (native α2 subunit-containing glycine receptors of striatal medium spiny neurons)

T1 sequence (Q7TNC8 28-452): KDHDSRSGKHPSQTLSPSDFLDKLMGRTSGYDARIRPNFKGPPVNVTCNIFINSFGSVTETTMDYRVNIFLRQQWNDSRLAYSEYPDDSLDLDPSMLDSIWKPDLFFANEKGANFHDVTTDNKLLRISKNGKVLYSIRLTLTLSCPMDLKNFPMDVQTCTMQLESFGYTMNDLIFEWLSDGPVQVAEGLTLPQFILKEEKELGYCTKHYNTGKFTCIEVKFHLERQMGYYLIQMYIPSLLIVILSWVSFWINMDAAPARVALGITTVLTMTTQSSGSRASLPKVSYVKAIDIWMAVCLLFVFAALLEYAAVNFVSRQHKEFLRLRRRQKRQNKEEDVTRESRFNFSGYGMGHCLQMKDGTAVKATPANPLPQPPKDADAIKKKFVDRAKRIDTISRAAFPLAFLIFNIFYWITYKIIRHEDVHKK

NCC(=O)O [glycine]
EC50: 317 ± 25.4 µM
